According to patent US12595248B2, “PRMT5 inhibitors” (Merck Sharp & Dohme LLC, priority 2019, dated 2026):
Read-outs that look alike come from different tables or passages of the source.

What was measured:
PRMT5 = molecular target: T1, PRMT5 (Homo sapiens, UniProt O14744); experiment: PRMT5 Cell Target Engagement (TE) Assay; format: cell-based; conditions: MCF-7 cells, treated for 3 days, symmetric dimethylation of arginine (SDMA) by high content imaging
T1 construct: seeded with 4000 MCF-7 cells in 30 μl media; endogenous in cells; host or cells: MCF-7 cells
Procedure, shortened: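 Readout is single-cell nuclear symmetric-dimethylarginine immunofluorescence (Alexa488), normalized to DMSO-treated cells. Compounds were applied to MCF-7 cells for 3 days at 37 °C, top concentration 10000 nM in 1:3 steps over ten points; curves fitted with 4-parameter robust fit.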

[1] = molecular target: T2, PRMT5-MEP50 enzyme complex (Homo sapiens, UniProt O14744); experiment: PRMT5-MEP50 Enzyme Methylation Assay (Version A); format: biochemical
T2 construct: Full-length (FL)-PRMT5-MEP50 enzyme complex (recombinant proteins from baculovirus-transfected Sf21 cells: FL-PRMT5; MW=73837 kDa and FL-MEP50; MW=38614); made in house; host or cells: baculovirus-transfected Sf21 cells
Experimental: PRMT5-MEP50 Enzyme Methylation Assay (Version A)
PRMT5-MEP50 biochemical assay is a direct measurement of the methylation activity of the enzyme complex on a short peptide substrate derived from the N-terminus of H4 histone. Methylation experiment was performed with recombinant PRMT5-MEP50 protein complex. The assessment of inhibitory effect of small molecules was measured by the effectiveness of the compounds to inhibit this reaction (EC50).
In this assay, the potency (EC50) of each compound was determined from a twenty-point (1:2 serial dilution; top compound concentration of 100000 nM) titration curve using the following outlined procedure. To each well of a white ProxiPlus 384 well-plate, 100 nL of compound (1% DMSO in final assay volume of 10 μL) was dispensed, followed by the addition of 8 μL of 1× assay buffer (50 mM Bicine pH 8.0, 1 mM DTT, 0.004% Tween20, 0.01% BSA) containing 1.25 nM of Full-length (FL)-PRMT5-MEP50 enzyme complex (recombinant proteins from baculovirus-transfected Sf21 cells: FL-PRMT5; MW=[…] and FL-MEP50; MW=38614) and 1 μL of 150 μM S-(5′-Adenosyl)-L-Methionine Chloride (SAM). A plate was sealed and placed in a 37° C. humidified chamber for a 60 minutes pre-incubation with compound. Subsequently, each reaction was initiated by the addition of 1 μL 1× assay buffer containing 750 nM biotinylated H4R3 (MeI) peptide. The final reaction in each well of 10 μL consists of 1.0 nM PRMT5-MEP50, 75 nM biotinylated-peptide, and 15 μM SAM. Methylation reactions were allowed to proceed for 150 minutes in a sealed plate at 37° C. Reactions were immediately quenched by the addition of 1 μL of 5% formic acid. A plate was then frozen and shipped to SAMDI™ Tech Inc. to determine the percent conversion from H4R3 (MeI) to H4R3 (Me2). Dose-response curves were generated by plotting percent effect (% product conversion; Y-axis) vs. Log 10 compound concentrations (X-axis). EC50 values were determined by non-linear regression according to models for either sigmoidal (4 parameters) or biphasic (7 parameters) dose-response curves.

[2] = only one EC50 shown: 4 parameters single site sigmoidal model, 60 min pre-incubation with SAM, read-out: Enzyme Methylation Assay Version A (EC50)
[3] = first of two EC50s: 7 parameters biphasic model, read-out: Enzyme Methylation Assay Version A (EC50_1)
[4] = second of two EC50s: 7 parameters biphasic model, read-out: Enzyme Methylation Assay Version A (EC50_2)

T1 sequence (O14744 whole entry): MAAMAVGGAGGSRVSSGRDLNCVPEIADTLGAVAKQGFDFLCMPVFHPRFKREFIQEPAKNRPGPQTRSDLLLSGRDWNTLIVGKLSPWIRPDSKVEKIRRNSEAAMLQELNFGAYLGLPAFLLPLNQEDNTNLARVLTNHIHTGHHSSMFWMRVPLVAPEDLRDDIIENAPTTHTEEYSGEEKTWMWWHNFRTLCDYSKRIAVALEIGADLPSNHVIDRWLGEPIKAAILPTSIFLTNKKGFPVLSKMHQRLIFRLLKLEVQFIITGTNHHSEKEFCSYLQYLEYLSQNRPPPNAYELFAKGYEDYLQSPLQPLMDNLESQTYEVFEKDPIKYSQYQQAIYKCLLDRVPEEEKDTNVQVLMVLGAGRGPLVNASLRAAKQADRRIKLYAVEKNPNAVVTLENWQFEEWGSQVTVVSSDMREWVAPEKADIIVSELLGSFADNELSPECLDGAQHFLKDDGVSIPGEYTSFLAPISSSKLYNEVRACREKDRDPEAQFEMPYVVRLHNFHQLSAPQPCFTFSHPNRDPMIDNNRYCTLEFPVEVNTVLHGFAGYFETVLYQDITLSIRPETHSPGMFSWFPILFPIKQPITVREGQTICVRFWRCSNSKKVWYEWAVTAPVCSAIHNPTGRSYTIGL
T1 sequence (Q9BQA1 whole entry partner): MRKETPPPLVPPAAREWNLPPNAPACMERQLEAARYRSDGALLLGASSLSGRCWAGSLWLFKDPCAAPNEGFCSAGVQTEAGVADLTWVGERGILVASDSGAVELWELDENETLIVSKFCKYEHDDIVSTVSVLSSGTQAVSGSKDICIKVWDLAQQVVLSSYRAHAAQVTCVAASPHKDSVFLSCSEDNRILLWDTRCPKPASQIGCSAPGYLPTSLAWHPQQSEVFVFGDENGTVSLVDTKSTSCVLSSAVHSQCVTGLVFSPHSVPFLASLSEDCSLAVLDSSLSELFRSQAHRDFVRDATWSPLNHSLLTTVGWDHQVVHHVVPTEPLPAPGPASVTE
T2 sequence (O14744 whole entry): as the sequence (O14744 whole entry) above
T2 sequence (Q9BQA1 whole entry partner): as the sequence (Q9BQA1 whole entry partner) above

| SMILES | EC50 (PRMT5) | EC50 [1, 2] | EC50 [1, 3] | EC50 [1, 4] |
| --- | --- | --- | --- | --- |
| COC(C)c1cc(Br)cn2cc(C(=O)N3CC[C@H](N4CCc5ccccc5C4)[C@@H](O)C3)nc12 (single isomer, unassigned) [Example 68, (6-bromo-8-((R or S)-1-methoxyethyl)imidazo[1,2-a]pyridin-2-yl)((3S,4S)-4-(3,4-dihydroisoquinolin-2(1H)-yl)-3-hydroxypiperidin-1-yl)methanone] | 2.2 nM | 0.4 nM | – | – |
| O=C(c1cc(NC2CCN3C(=O)CCC3C2)ncc1F)N1CC[C@H](N2CCc3ccccc3C2)[C@@H](O)C1 (single isomer, unassigned) [Example 115] | 140 nM | 6.5 nM | – | – |
| CC1(C)CC(C2Oc3ccc(C(=O)N4CC[C@H](N5CCc6ccccc6C5)[C@@H](O)C4)cc3NC2=O)CO1 (single isomer, unassigned) [Example 85] | 6.4 nM | 1.3 nM | – | – |
| CC(C)N1CCNc2cc(C(=O)N3CC[C@H](N4CCc5ccccc5C4)[C@@H](O)C3)ccc2C1=O [Example 62, 8-((3S,4S)-4-(3,4-dihydroisoquinolin-2(1H)-yl)-3-hydroxypiperidine-1-carbonyl)-4-isopropyl-1,2,3,4-tetrahydro-5H-benzo[e][1,4]diazepin-5-one] | 21 nM | 3.6 nM | – | – |
| CCOc1nc(Br)cn2cc(C(=O)N3CC[C@H](N4CCc5ccccc5C4)[C@@H](O)C3)nc12 [Example 51, (6-bromo-8-ethoxyimidazo[1,2-a]pyrazin-2-yl)((3S,4S)-4-(3,4-dihydroisoquinolin-2(1H)-yl)-3-hydroxypiperidin-1-yl)methanone] | 6.3 nM | – | 0.4 nM | 120 nM |
| CO[C@H](C)c1cc(C)cn2cc(C(=O)N3CC[C@H](N4CCc5ccccc5C4)[C@@H](O)C3)nc12 [Example 59, [(3S,4S)-4-(3,4-dihydroisoquinolin-2(1H)-yl)-3-hydroxypiperidin-1-yl]{8-[(1R)-1-methoxyethyl]-6-methylimidazo[1,2-a]pyridin-2-yl}methanone] | 4.4 nM | 0.5 nM | – | – |
| CC1(C)CC(C2Oc3ccc(C(=O)N4CC[C@H](N5CCc6ccccc6C5)[C@@H](O)C4)cc3NC2=O)CO1 (single isomer, unassigned) [Example 84] | 5.6 nM | 0.9 nM | – | – |
| Cc1cnc2nc(C(=O)N3CC[C@H](N4CCc5ccccc5C4)[C@@H](O)C3)cn2c1 [Example 72, [(3S,4S)-4-(3,4-dihydroisoquinolin-2(1H)-yl)-3-hydroxypiperidin-1-yl](6-methylimidazo[1,2-a]pyrimidin-2-yl)methanone] | 37 nM | – | 0.9 nM | 248 nM |
| CC1(C)CC1(C#N)c1cnc2nc(C(=O)N3CC[C@H](N4CCc5ccccc5C4)[C@@H](O)C3)cn2c1 (single isomer, unassigned) [Example 127] | 12 nM | 0.4 nM | – | – |
| O=C(c1cn2cc(Br)cnc2n1)N1CC[C@H](N2CCc3ccccc3C2)[C@@H](O)C1 [Example 71, (6-bromoimidazo[1,2-a]pyrimidin-2-yl)[(3S,4S)-4-(3,4-dihydroisoquinolin-2(1H)-yl)-3-hydroxypiperidin-1-yl]methanone] | 10 nM | 1.1 nM | – | – |
| O=C(c1ccnc(C(F)F)c1)N1CC[C@H](N2CCc3ccccc3C2)[C@@H](O)C1 [Example 52, (2-(difluoromethyl)pyridin-4-yl)((3S,4S)-4-(3,4-dihydroisoquinolin-2(1H)-yl)-3-hydroxypiperidin-1-yl)methanone] | > 10000 nM | 580 nM | – | – |
| CC1CC1c1cnc2nc(C(=O)N3CCC(N4CCc5ccccc5C4)[C@@H](O)C3)cn2c1 (single isomer, unassigned) [Example 130] | 3.8 nM | 0.7 nM | – | – |
| CC(=O)N1CCC(Nc2cc(C(=O)N3CCC(N4CCc5ccccc5C4)C(O)C3(C)C)ccn2)CC1 (single isomer, unassigned) [Example 23, l-(4-((4-(4-(3,4-dihydroisoquinolin-2(1H)-yl)-3-hydroxy-2,2-dimethylpiperidine-1-carbonyl)pyridin-2-yl)amino)piperidin-1-yl)ethan-1-one] | 4690 nM | – | ~36 nM | 31600 nM |
| O=C(c1nn2cc(Br)cnc2c1Cl)N1CC[C@H](N2CCc3ccccc3C2)[C@@H](O)C1 [Example 133, (6-bromo-3-chloropyrazolo[1,5-a]pyrimidin-2-yl)[(3S,4S)-4-(3,4-dihydroisoquinolin-2(1H)-yl)-3-hydroxypiperidin-1-yl]methanone] | 140 nM | – | 3.2 nM | 569 nM |
| O=C(c1cn2cc(C(F)(F)F)cc(Cl)c2n1)N1CC[C@H](N2CCc3ccccc3C2)[C@@H](O)C1 [Example 137, [8-chloro-6-(trifluoromethyl)imidazo[1,2-a]pyridin-2-yl][(3S,4S)-4-(3,4-dihydroisoquinolin-2(1H)-yl)-3-hydroxypiperidin-1-yl]methanone] | 9.2 nM | 1.1 nM | – | – |
| Cn1nccc1-c1cnc2nc(C(=O)N3CC[C@H](N4CCc5ccccc5C4)[C@@H](O)C3)cn2c1 [Example 57, [(3S,4S)-4-(3,4-dihydroisoquinolin-2(1H)-yl)-3-hydroxypiperidin-1-yl][6-(1-methyl-1H-pyrazol-5-yl)imidazo[1,2-a]pyrimidin-2-yl]methanone] | 8.7 nM | 1.1 nM | – | – |
| Cc1cc(Cl)c2nc(C(=O)N3CC[C@H](N4CCc5ccccc5C4)[C@@H](O)C3)cn2c1 [Example 136, (8-chloro-6-methylimidazo[1,2-a]pyridin-2-yl)[(3S,4S)-4-(3,4-dihydroisoquinolin-2(1H)-yl)-3-hydroxypiperidin-1-yl]methanone] | 50 nM | – | 1.2 nM | 79 nM |
| CC1(C)CC1(C#N)c1cnc2nc(C(=O)N3CC[C@H](N4CCc5ccccc5C4)[C@@H](O)C3)cn2c1 (single isomer, unassigned) [Example 128] | 1.1 nM | 0.3 nM | – | – |
| Cc1c(Br)cnc2ncc(C(=O)N3CC[C@H](N4CCc5ccccc5C4)[C@@H](O)C3)n12 [Example 76, (6-bromo-5-methylimidazo[1,2-a]pyrimidin-3-yl)[(3S,4S)-4-(3,4-dihydroisoquinolin-2(1H)-yl)-3-hydroxypiperidin-1-yl]methanone] | 2230 nM | – | 3.1 nM | 1680 nM |
| O=C(c1cc(NC2CCN3C(=O)CCC3C2)ncc1F)N1CC[C@H](N2CCc3ccccc3C2)[C@@H](O)C1 (single isomer, unassigned) [Example 116] | 6.6 nM | 3.9 nM | – | – |
| CC1CC1c1cnc2nc(C(=O)N3CCC(N4CCc5ccccc5C4)[C@@H](O)C3)cn2c1 (single isomer, unassigned) [Example 131] | 4.6 nM | 0.5 nM | – | – |
| CC1CC1c1cnc2nc(C(=O)N3CCC(N4CCc5ccccc5C4)[C@@H](O)C3)cn2c1 (single isomer, unassigned) [Example 129] | 6.4 nM | 1.4 nM | – | – |
| CC(=O)N1CCC(Nc2cc(C(=O)N3CCC(N4CCc5ccccc5C4)C(O)C3(C)C)ccn2)CC1 (single isomer, unassigned) [Example 22, l-(4-((4-(4-(3,4-dihydroisoquinolin-2(1H)-yl)-3-hydroxy-2,2-dimethylpiperidine-1-carbonyl)pyridin-2-yl)amino)piperidin-1-yl)ethan-1-one] | > 10000 nM | – | 159 nM | 58900 nM |
